Experiments:
Rats = assay: Geller-Seifter procedure (conflict session, anxiolytic properties); format: in vivo, rat; conditions: FR5 conflict session
Protocol: 1. Geller-Seifter Procedure
Potential anxiolytic properties have been evaluated using the Geller-Seifter procedure based on that originally described by Geller and Seifter, (1960) Psychopharmacologia, 1,482-492.
Rats are trained on a variable interval 30 sec schedule (VI30) to press a lever in order to obtain food reward. The 5 min sessions of the VI30 schedule alternate with 2-5 min of a schedule (FR5) in which every 5th lever press is followed by presentation of a food pellet paired with a 0.5 sec mild footshock. The total study lasts approximately 30 mins. Rats typically respond with high rates of lever pressing under the VI30 schedule and low response rates under the FR5 `conflict` session. Anxiolytic drugs increase the suppressed response rates of rats in `conflict` session.
Drugs are administered intraperitoneally or orally to groups of 3-8 rats 30 min before testing.
The results are expressed as the percentage increase in square root of the total number of lever presses in the FR5 `conflict` session. Square root transformation is necessary to normalise the data for statistical analysis using parametric methods (ANOVA).

[1] = target: rat cerebral cortex membranes ([35S]-TBPS binding); assay: [35S]-TBPS binding to rat cerebral cortex membranes in vitro; conditions: 2 nM [35S]-TBPS, 5x10^-6 M GABA
Protocol: 2. [^35 S]-TBPS binding to rat cerebral cortex membranes in vitro
Pooled rat cerebral cortices are homogenised in 20 volumes of 0.32M sucrose and centrifuged at 1000 g for 20 minutes (4° C.). The supernatant is removed and recentrifuged at 50,000 g (4° C., 20 mins). The P2 pellet is then suspended in 20 volumes of Tris citrate buffer (pH 7.1) and centrifuged at 50,000 g (4° C., 20 mins). This washing step is repeated three times and the pellet finally resuspended in 20 volumes of buffer and stored at -70° C. prior to use.
The tissue suspension ([…]) is incubated (25° C., 120 mins) with [^35 S]-TBPS (2 nM) in Tris citrate buffer (pH 7.1) containing 0.2M NaCl and 5×10^-6 M GABA. Non-specific binding is measured in the presence of 10^-4 M picrotoxin. Varying concentrations of test drugs (10^-7, 10^-6, 10^-5 and 10^-4 M final concentration) are added in a volume of […]. The total assay volume is […]. Incubation is stopped by rapid filtration using a Skatron cell harvester and radioactivity measured by liquid scintillation spectrometry. IC50 's are calculated as the concentration of test drug to inhibit 50% of specific binding.

Mice = assay: MES Test (maximal electroshock seizure); format: in vivo, mouse; conditions: 100 mg/kg p.o.
Protocol: The maximal electroshock seizure (MES) test in rodents is one of the most widely used models of human grand mal epilepsy^1. In this model, anticonvulsant agents elevate the threshold to electrically-induced seizures whilst proconvulsants lower the seizure threshold.
Mice (male, Charles River, U.K. CD-1 strain, 25-30 g) are randomly assigned to groups of 10-20 and dosed orally or intraperitoneally at a dose volume of 10 ml/kg with various doses of compound (1-100 mg/kg) or vehicle. Mice are then subjected at 30 or 60 rain post dose to a variable voltage electroshock (0.1 sec., 50 Hz, sine wave form) via a buccal and a subcutaneous electrode. The mean voltage and standard error required to induce a tonic seizure in 50% (CV50) of the mice in the group is determined by the `up and down` method of Dixon and Mood (1948)^2. Statistical comparisons between vehicle- and drug-treated groups are made using the method of Litchfield and Wilcoxon (1949)^3.
If a tonic convulsion does occur, then the voltage is decreased, and so on until all the animals in the group have been tested.
The percentage increase or decrease in CV50 for each group compared to the control is calculated.
Studies are carried out using a Heathkit shock generator with totally variable control of shock level from 0 to 200 V and voltage steps of 5 V are used.
Drugs are suspended in 1% methyl cellulose.

SMILES | responding in the 'conflict' session (Rats; 20 mg/kg p.o.) | IC50 [1] | CV50 (voltage inducing tonic seizure in 50% of mice) (Mice) | responding in the 'conflict' session (Rats; 10 mg/kg p.o.)
CCOC(=O)c1c(C)nc2sc3c(c2c1N)CCC(O)C3 (racemic) [Example 1, (±)-4-Amino-7-hydroxy-2-methyl-5,6,7,8-tetrahydrobenzo[b]thieno[2,3-b]pyridine-3-carboxylic acid, ethyl ester] | significant increase | < 20 µM | significant increase | 
CC#CCOC(=O)c1c(C)nc2sc3c(c2c1N)CCC(O)C3 (racemic) [Example 4, (±)-4-Amino-7-hydroxy-2-methyl-5,6,7,8-tetrahydrobenzo[b]thieno[2,3-b]pyridine-3-carboxylic acid, but-2-ynyl ester] | significant increase | < 20 µM |  | 
Cc1nc2sc3c(c2c(N)c1C(=O)OCC1CCC1)CCC(O)C3 (racemic) [Example 5, (±)-4-Amino-7-hydroxy-2-methyl-5,6,7,8-tetrahydrobenzo[b]thieno[2,3-b]pyridine-3-carboxylic acid, cyclobutylmethyl ester] |  | < 20 µM |  | 
Cc1nc2sc3c(c2c(N)c1C(=O)OCC1CC1)CCC(O)C3 (racemic) [Example 6, (±)-4-Amino-7-hydroxy-2-methyl-5,6,7,8-tetrahydrobenzo[b]thieno[2,3-b]pyridine-3-carboxylic acid, cyclopropylmethyl ester] | significant increase | < 20 µM |  | 
COC(=O)c1c(C)nc2sc3c(c2c1N)CCC(O)C3 (racemic) [Example 7, (±)-4-Amino-7-hydroxy-2-methyl-5,6,7,8-tetrahydrobenzo[b]thieno[2,3-b]pyridine-3-carboxylic acid, methyl ester] | significant increase |  |  | 
C#CCOC(=O)c1c(C)nc2sc3c(c2c1N)CCC(O)C3 (racemic) [Example 8, (±)-4-Amino-7-hydroxy-2-methyl-5,6,7,8-tetrahydrobenzo[b]thieno[2,3-b]pyridine-3-carboxylic acid, prop-2-ynyl ester] |  |  |  | significant increase
C#CCCOC(=O)c1c(C)nc2sc3c(c2c1N)CCC(O)C3 (racemic) [Example 9, (±)-4-Amino-7-hydroxy-2-methyl-5,6,7,8-tetrahydrobenzo[b]thieno[2,3-b]pyridine-3-carboxylic acid, but-3-ynyl ester] |  |  |  | significant increase
C=CCCOC(=O)c1c(C)nc2sc3c(c2c1N)CCC(O)C3 (racemic) [Example 10, (±)-4-Amino-7-hydroxy-2-methyl-5,6,7,8-tetrahydrobenzo[b]thieno[2,3-b]pyridine-3-carboxylic acid, but-3-enyl ester] | significant increase |  |  | 
CCOC(=O)c1c(C)nc2sc3c(c2c1N(C)C)CCC(OC)C3 (racemic) [Example 19, (±)-4-Dimethylamino-7-methoxy-2-methyl-5,6,7,8-tetrahydrobenzo[b]thieno[2,3-b]pyridine-3-carboxylic acid, ethyl ester] |  | < 20 µM |  | 
CCOC(=O)c1c(C)nc2sc3c(c2c1N)CCC(O)C3 (single isomer, unassigned; (+)) [Example 3, (+)-4-Amino-7-hydroxy-2-methyl-5,6,7,8-tetrahydrobenzo[b]thieno[2,3-b]pyridine-3-carboxylic acid, ethyl ester] |  | < 20 µM |  | 

Reference: patent US5447937A, “CNS active tetrahydrobenzothienopyridines” (SmithKline Beecham p.l.c., priority 1991, dated 1995)
